For experiment [1], the target named is T1, HiBiT-BRM fusion protein in stable HeLa cell line (Homo sapiens, UniProt P51531).
T1 construct: expressed in transfected cells
In words: HiBiT-BRM cell-based degradation assay (Nano-Glo HiBiT Lytic Detection, 24 h). The arrangement: DC50: scale not given here. To be noted: HeLa HiBiT-BRM cells; for DC50: read-out: BRM HiBit Degradation IC50; for BRM HiBit Degradation Maximum (%): top dose 30 μM. Summed up: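 Percent degradation was scaled between DMSO-treated cells and cells given 2 μM of a known BRM/BRG1 degrader. Readout was NanoBiT luminescence after lytic detection. HeLa cells stably expressing HiBiT-BRM were dosed for 24 h, 10 points, 3-fold steps from 30 μM final, in duplicate.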
On the technique in general: The HiBiT peptide binds its large partner to form an active luciferase.

Experiment [2] has as its target T2, HiBit-BRG1 fusion protein in stable HeLa cell line expressing HiBit-BRG1 and LgBit (Homo sapiens, UniProt P51532).
T2 construct: expressed in transfected cells
Briefly: HiBiT-BRG1 cell-based degradation assay (Nano-Glo HiBiT, 24 h). As to conditions: HeLa HiBit-BRG1/LgBit cells; for DC50: read-out: BRMG1 HiBit Degradation IC50; for Dmax: read-out: BRG1 HiBit Degradation Maximum (%). The essentials: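 Degradation calculated from NanoBiT luminescence relative to DMSO-treated cells (high) and cells given 2 μM known BRM/BRG1 degrader (low). HeLa cells stably expressing HiBiT-BRG1 plus LgBiT were exposed to compound for 24 h before lytic HiBiT detection.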

T2 sequence (P51532 whole entry, the tested form may be a part): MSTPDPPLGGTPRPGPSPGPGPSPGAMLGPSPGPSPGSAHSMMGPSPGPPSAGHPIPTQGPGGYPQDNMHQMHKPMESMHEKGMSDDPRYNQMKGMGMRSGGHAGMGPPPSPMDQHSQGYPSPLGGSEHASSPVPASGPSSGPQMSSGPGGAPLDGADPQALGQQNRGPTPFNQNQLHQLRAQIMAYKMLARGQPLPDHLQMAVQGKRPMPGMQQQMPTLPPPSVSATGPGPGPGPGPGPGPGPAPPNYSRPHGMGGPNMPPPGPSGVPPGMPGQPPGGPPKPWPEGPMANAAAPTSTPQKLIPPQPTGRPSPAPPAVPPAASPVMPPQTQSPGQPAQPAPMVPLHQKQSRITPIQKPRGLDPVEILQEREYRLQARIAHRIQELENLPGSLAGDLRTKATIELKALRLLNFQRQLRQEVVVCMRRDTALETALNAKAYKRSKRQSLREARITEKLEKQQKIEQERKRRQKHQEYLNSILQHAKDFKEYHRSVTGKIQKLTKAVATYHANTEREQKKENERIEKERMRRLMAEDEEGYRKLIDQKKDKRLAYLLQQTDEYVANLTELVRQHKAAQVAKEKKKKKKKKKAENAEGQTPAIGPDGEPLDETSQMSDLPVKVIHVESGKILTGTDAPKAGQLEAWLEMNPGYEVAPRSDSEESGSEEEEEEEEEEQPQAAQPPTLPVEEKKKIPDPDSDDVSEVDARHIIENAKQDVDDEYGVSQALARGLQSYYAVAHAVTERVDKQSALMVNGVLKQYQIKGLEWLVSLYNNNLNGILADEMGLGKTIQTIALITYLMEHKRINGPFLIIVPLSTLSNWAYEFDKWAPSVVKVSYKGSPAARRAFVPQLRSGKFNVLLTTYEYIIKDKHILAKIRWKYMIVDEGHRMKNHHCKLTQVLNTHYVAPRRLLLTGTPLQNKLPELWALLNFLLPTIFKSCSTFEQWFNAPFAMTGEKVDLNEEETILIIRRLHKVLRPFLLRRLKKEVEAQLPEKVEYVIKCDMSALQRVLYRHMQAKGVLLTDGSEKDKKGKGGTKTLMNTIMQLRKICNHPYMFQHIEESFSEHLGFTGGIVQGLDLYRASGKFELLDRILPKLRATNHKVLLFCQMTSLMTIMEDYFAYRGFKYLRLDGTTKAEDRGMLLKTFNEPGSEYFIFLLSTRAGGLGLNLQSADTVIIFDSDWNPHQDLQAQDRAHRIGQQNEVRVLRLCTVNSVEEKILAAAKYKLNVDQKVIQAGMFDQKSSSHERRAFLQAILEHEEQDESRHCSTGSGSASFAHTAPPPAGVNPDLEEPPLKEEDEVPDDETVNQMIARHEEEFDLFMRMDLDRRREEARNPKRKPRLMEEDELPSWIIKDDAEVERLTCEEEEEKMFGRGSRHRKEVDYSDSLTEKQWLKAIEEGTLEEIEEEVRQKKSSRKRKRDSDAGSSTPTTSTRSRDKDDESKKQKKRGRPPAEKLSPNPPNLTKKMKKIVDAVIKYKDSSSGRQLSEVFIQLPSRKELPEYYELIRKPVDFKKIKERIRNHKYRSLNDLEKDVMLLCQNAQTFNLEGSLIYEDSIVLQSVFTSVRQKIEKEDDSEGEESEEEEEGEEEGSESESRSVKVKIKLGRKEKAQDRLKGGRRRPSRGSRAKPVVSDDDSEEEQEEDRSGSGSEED
T1 sequence (P51531 whole entry, the tested form may be a part): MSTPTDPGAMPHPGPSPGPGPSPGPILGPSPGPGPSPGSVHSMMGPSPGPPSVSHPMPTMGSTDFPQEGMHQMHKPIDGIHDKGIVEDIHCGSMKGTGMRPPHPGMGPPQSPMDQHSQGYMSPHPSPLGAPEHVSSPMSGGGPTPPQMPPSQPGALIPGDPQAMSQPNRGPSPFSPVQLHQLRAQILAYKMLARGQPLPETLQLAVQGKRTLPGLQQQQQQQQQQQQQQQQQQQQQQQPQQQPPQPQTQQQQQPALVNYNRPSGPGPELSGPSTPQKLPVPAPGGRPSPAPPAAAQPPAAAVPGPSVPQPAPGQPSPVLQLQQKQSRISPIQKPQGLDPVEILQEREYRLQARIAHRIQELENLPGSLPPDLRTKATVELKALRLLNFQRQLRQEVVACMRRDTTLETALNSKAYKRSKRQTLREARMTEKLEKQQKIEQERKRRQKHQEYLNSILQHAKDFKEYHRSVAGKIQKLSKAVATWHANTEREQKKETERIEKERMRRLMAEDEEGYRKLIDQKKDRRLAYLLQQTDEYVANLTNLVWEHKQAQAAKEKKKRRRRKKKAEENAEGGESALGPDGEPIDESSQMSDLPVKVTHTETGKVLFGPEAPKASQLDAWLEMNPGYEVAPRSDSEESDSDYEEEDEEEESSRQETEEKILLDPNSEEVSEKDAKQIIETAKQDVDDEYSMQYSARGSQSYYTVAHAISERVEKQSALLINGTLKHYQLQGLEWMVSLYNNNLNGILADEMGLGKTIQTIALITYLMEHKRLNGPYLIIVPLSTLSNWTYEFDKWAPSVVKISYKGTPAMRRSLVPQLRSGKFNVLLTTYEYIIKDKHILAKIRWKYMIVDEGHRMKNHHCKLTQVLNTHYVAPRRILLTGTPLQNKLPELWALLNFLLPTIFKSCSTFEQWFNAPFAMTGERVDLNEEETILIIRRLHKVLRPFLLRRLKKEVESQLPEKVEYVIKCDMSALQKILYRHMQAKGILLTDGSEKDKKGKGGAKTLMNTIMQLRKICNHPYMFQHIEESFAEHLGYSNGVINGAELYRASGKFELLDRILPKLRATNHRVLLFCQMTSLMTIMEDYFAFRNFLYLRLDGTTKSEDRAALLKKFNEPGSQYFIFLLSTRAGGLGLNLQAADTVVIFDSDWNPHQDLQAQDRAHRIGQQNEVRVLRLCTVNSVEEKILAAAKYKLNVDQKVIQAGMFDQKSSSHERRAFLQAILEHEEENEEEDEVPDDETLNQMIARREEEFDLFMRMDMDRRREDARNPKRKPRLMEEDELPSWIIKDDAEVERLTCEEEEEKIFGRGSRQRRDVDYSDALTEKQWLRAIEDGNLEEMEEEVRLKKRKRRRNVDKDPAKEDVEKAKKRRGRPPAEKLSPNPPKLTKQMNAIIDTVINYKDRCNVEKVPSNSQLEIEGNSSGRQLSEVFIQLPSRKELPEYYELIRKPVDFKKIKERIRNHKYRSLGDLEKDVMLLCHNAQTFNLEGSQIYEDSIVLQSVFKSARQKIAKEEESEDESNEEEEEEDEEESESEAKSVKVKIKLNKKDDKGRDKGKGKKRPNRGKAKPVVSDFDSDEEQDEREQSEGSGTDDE

As for `Cc1ncsc1-c1ccc([C@H](C)NC(=O)[C@@H]2C[C@@H](O)CN2C(=O)[C@@H](c2cc(N3CCN([C@@H]4CCN(Cc5ccc6nnc(-c7ccccc7O)cc6c5)CC4(F)F)CC3)no2)C(C)C)cc1` [Compound 136, (2S,4R)-1-((R)-2-(3-(4-((R)-3,3-difluoro-1-((3-(2-hydroxyphenyl)cinnolin-6-yl)methyl)piperidin-4-yl)piperazin-1-yl)isoxazol-5-yl)-3-methylbutanoyl)-4-hydroxy-N-((S)-1-(4-(4-methylthiazol-5-yl)phenyl)ethyl)pyrrolidine-2-carboxamide], in experiment [1], the DC50 is under 10 nM and the “BRM HiBit Degradation Maximum (%)” value is given as “A (“A” indicates maximum degradation ≥75%)”. Also, in experiment [2], the DC50 was under 10 nM. For the same compound, the Dmax in experiment [2] (top dose 30 μM) is over 75%.

On to `Cc1ncsc1-c1ccc([C@H](C)NC(=O)[C@@H]2C[C@@H](O)CN2C(=O)[C@@H](c2cc(N3CCC4(CC[C@H](c5ccc6cc(-c7ccccc7O)nnc6c5)C4)CC3)no2)C(C)C)cc1` [Compound 92, (2S,4R)-4-hydroxy-1-((R)-2-(3-((S)-2-(3-(2-hydroxyphenyl)cinnolin-7-yl)-8-azaspiro[4.5]decan-8-yl)isoxazol-5-yl)-3-methylbutanoyl)-N-((S)-1-(4-(4-methylthiazol-5-yl)phenyl)ethyl)pyrrolidine-2-carboxamide], for which, in experiment [1], the DC50 was under 10 nM and the “BRM HiBit Degradation Maximum (%)” value is on record as “A (“A” indicates maximum degradation ≥75%)”. Besides, the DC50 in experiment [2] is over 10 nM. Also, in experiment [2] (top dose 30 μM), the Dmax is over 75%.

For `Cc1ncsc1-c1ccc([C@H](C)NC(=O)[C@@H]2C[C@@H](O)CN2C(=O)[C@@H](c2cc(-c3cnc(N4CC[C@H](c5ccc6cc(-c7ccccc7O)nnc6c5)C4)nc3)no2)C(C)C)cc1` [Compound 22], in experiment [1], the DC50 is under 10 nM and the “BRM HiBit Degradation Maximum (%)” value was “A (“A” indicates maximum degradation ≥75%)”. The DC50 in experiment [2] is under 10 nM. In addition, the Dmax in experiment [2] (top dose 30 μM) is over 75%.

Turning to `Cc1ncsc1-c1ccc([C@H](C)NC(=O)[C@@H]2C[C@@H](O)CN2C(=O)[C@@H](c2cc(N3CCC(Oc4ccc5nnc(-c6ccccc6O)cc5c4)CC3)no2)C(C)C)cc1` [Compound 182, (2S,4R)-4-hydroxy-1-((R)-2-(3-(4-((3-(2-hydroxyphenyl)cinnolin-6-yl)oxy)piperidin-1-yl)isoxazol-5-yl)-3-methylbutanoyl)-N-((S)-1-(4-(4-methylthiazol-5-yl)phenyl)ethyl)pyrrolidine-2-carboxamide], in experiment [1], the DC50 was under 10 nM and the “BRM HiBit Degradation Maximum (%)” value is reported as “A (“A” indicates maximum degradation ≥75%)”. Further, in experiment [2], the DC50 is over 10 nM. Also, the Dmax in experiment [2] (top dose 30 μM) is over 75%.

Consider `Cc1ncsc1-c1ccc([C@H](C)NC(=O)[C@@H]2C[C@@H](O)CN2C(=O)[C@@H](c2cc(-c3ccc4nnc(-c5cccc(F)c5O)cc4c3)no2)C(C)C)cc1` [Compound 143, (2S,4R)-1-((R)-2-(3-(3-(3-fluoro-2-hydroxyphenyl)cinnolin-6-yl)isoxazol-5-yl)-3-methylbutanoyl)-4-hydroxy-N-((S)-1-(4-(4-methylthiazol-5-yl)phenyl)ethyl)pyrrolidine-2-carboxamide], for which, in experiment [1], the DC50 was under 10 nM and the “BRM HiBit Degradation Maximum (%)” value is “A (“A” indicates maximum degradation ≥75%)”. The Dmax in experiment [2] (top dose 30 μM) is under 50%.

With `Cc1ncsc1-c1ccc([C@H](C)NC(=O)[C@@H]2C[C@@H](O)CN2C(=O)[C@@H](c2cc(-c3cnc(N4CCN(c5ccc6cc(-c7ccccc7O)nnc6c5)CC4)nc3)no2)C(C)C)cc1` [Compound 47], in experiment [1], the “BRM HiBit Degradation Maximum (%)” value was “A (“A” indicates maximum degradation ≥75%)”. Also, the “BRG1 HiBit Degradation Maximum (%)” value in experiment [2] (top dose 30 μM) was “C (“C” indicates maximum degradation <50%)”.

`CC(C)[C@@H](C(=O)N1C[C@H](O)C[C@H]1C(=O)N[C@@H](C)c1ccc(F)cc1)c1cc(N2CC3(CC(c4cc5nnc(-c6ccccc6O)cc5cc4C#N)C3)C2)no1` [Compound 227, (2S,4R)-1-((R)-2-(3-(6-(6-cyano-3-(2-hydroxyphenyl)cinnolin-7-yl)-2-azaspiro[3.3]heptan-2-yl)isoxazol-5-yl)-3-methylbutanoyl)-N-((S)-1-(4-fluorophenyl)ethyl)-4-hydroxypyrrolidine-2-carboxamide]: in experiment [1], the DC50 is over 100 nM and the “BRM HiBit Degradation Maximum (%)” value is “A (“A” indicates maximum degradation ≥75%)”. In addition, the DC50 in experiment [2] is over 100 nM. For the same compound, the Dmax in experiment [2] (top dose 30 μM) is over 50%.

For the compound `Cc1ncsc1-c1ccc([C@H](C)NC(=O)[C@@H]2C[C@@H](O)CN2C(=O)[C@@H](c2cc(N3CC[C@H](c4ccc5cc(-c6ccccc6O)nnc5c4)C3)no2)C(C)C)cc1` [Compound 60, (2S,4R)-4-hydroxy-1-((R)-2-(3-((R)-3-(3-(2-hydroxyphenyl)cinnolin-7-yl)pyrrolidin-1-yl)isoxazol-5-yl)-3-methylbutanoyl)-N-((S)-1-(4-(4-methylthiazol-5-yl)phenyl)ethyl)pyrrolidine-2-carboxamide], in experiment [1], the DC50 was under 10 nM and the “BRM HiBit Degradation Maximum (%)” value is reported as “A (“A” indicates maximum degradation ≥75%)”. For the same compound, the DC50 in experiment [2] was under 10 nM. The Dmax in experiment [2] (top dose 30 μM) is over 75%.

On to `Cc1ncsc1-c1ccc([C@H](C)NC(=O)[C@@H]2C[C@@H](O)CN2C(=O)C(C(C)C)n2cc(N3CCN(CC4CCN(c5ccc6nnc(-c7ccccc7O)cc6c5)CC4)CC3)nn2)cc1` (stereo partly drawn) [Compound 281], for which, in experiment [1], the DC50 is under 10 nM and the “BRM HiBit Degradation Maximum (%)” value is on record as “A (“A” indicates maximum degradation ≥75%)”. Moreover, in experiment [2], the DC50 is under 10 nM. In experiment [2] (top dose 30 μM), the Dmax was over 75%.

As for `Cc1ncsc1-c1ccc([C@H](C)NC(=O)[C@@H]2C[C@@H](O)CN2C(=O)[C@@H](c2cc(N3CC4(CN(c5cc(C(F)F)c6cc(-c7ccccc7O)nnc6c5)C4)C3)no2)C(C)C)cc1` [Compound 205, (2S,4R)-1-((R)-2-(3-(6-(5-(difluoromethyl)-3-(2-hydroxyphenyl)cinnolin-7-yl)-2,6-diazaspiro[3.3]heptan-2-yl)isoxazol-5-yl)-3-methylbutanoyl)-4-hydroxy-N-((S)-1-(4-(4-methylthiazol-5-yl)phenyl)ethyl)pyrrolidine-2-carboxamide], in experiment [1], the DC50 is under 10 nM and the “BRM HiBit Degradation Maximum (%)” value is “A (“A” indicates maximum degradation ≥75%)”. The Dmax in experiment [2] (top dose 30 μM) was under 50%.

For the compound `Cc1ncsc1-c1ccc([C@H](C)NC(=O)[C@@H]2C[C@@H](O)CN2C(=O)[C@@H](c2cc(N3CCC(N4CC5(CN(Cc6ccc7cc(-c8ccccc8O)nnc7c6)C5)C4)CC3)no2)C(C)C)cc1` [Compound 244, (2S,4R)-4-hydroxy-1-((R)-2-(3-(4-(6-((3-(2-hydroxyphenyl)cinnolin-7-yl)methyl)-2,6-diazaspiro[3.3]heptan-2-yl)piperidin-1-yl)isoxazol-5-yl)-3-methylbutanoyl)-N-((S)-1-(4-(4-methylthiazol-5-yl)phenyl)ethyl)pyrrolidine-2-carboxamide], in experiment [1], the DC50 is over 100 nM and the “BRM HiBit Degradation Maximum (%)” value is “B (“B” indicates maximum degradation ≥50%)”. In addition, in experiment [2] (top dose 30 μM), the Dmax was under 50%.

Source of the values: US20260193264A1, “BENZOYPARAZINE PYRAZINES AND THEIR USES” (FOGHORN THERAPEUTICS INC., priority 2022, published 2026).
